Results taken from patent publication US20260356814A1, “INDOLINE DERIVATIVES AS SEROTONERGIC AGENTS USEFUL FOR THE TREATMENT OF DISORDERS RELATED THERETO” (MINDSET PHARMA INC., priority 2022, published 2026).

Molecular target: T1, human 5-HT2A (h5-HT2A) receptor (Homo sapiens, UniProt P28223)
T1 construct: expressed in transfected cells; host or cells: HEK293 (HTR2A&Ga15-HEK293, tetracycline-induced)
Assay: FLIPR assay: human 5-HT2A (agonist mode)
Type: cell-based
Settings: for RFU@10 μM: @10 μM (head), footnote: curve fitting with activation (%) @ 10 mM with RFU, RFU=Fmax−Fmin; for EC50: FLIPR calcium, agonist mode, HTR2A&Gα15-HEK293 cells, ND: not detected
Description: Assessment of the effect of exemplary compounds of Formula I targeting on human 5-HT2A (h5-HT2A) receptor under agonist mode.
HTR2A&Ga15-HEK293 cells were cultured in DMEM medium containing 10% dialyzed FBS and 1x penicillin-streptomycin, 100 μg/mL Hygromycin B and 300 μg/mL G418. The cells were passaged about three times a week, maintained between ~30% to ~90% confluence.
• 1. The cell culture medium (DMEM medium containing 10% dialyzed FBS and 1× penicillin-streptomycin, 100 μg/mL Hygromycin B and 300 μg/mL G418), TrypLE™ Express and DPBS to R.T. was warmed in advance. • 2. For induction, 1 μg/ml tetracycline (final concentration) was added to cell culture medium and incubated for 48 hours prior to seeding cells into plate at 37° C., 5% (v/v) CO2. The cell culture medium was removed from flask. Cells were washed with DPBS. • 3. 2 mL TrypLE™ Express was added to the flask, mixed well by gentle shaking and cells were incubated at 37° C. for a few minutes. • The cells were checked for morphological change under microscope, the digestion was stopped by adding 4 mL cell culture medium to the flask when most of cells turned to round. • 5. The cell suspension was transferred into a 15 mL centrifuge tube, and then centrifuged at 1,200 rpm for 5 minutes. • 6. The supernatant was removed. The cell pellet was resuspended with 2 mL cell culture medium. • 7. The cell density was counted using cell counter. Only cells with >85% viability were used for the assay. • 8. Cells were diluted to 6.67×10^5/mL with cell culture medium. • 9. 30 μL/well cell suspensions added into a 384-well cell plate (The cell density was 20,000 cells/well). • 10. The cell plate was incubated overnight at 37° C., 5% (v/v) CO2. 2.3 Cell handling • 1. On the day of experiments, culture medium was removed from the cell plate. • 2. 10 μL of assay buffer (20 mM HEPES, in 1×HBSS, pH 7.4) was added to each well of the cell plate. • 3. 2×dye solution was prepared following the manual of the FLIPR® Calcium 6 Assay Kit: • i. The dye was diluted with assay buffer. • ii. Probenecid was added to the final concentration of 5 mM. • iii. Vortexed vigorously for 1-2 minutes. • 4. 10 μL of 2× dye solution was added to each well of the cell plate • 5. The cell plate was placed on plate shaker, followed by shaking at 600 rpm for 2 minutes. • 6. The plate was incubated at 37° C. for 2 hours followed by an additional 15-minute incubation at 25° C. 2.4 Prepare 3×compound • 1. Serotonin HCl was prepared to the concentration of 10 mM with DMSO. • 2. The test compounds were prepared to the concentration of 10 mM with DMSO. • 3. The compounds were added to a 384-well compound source plate. • 4. 3-folds serial dilutions were performed with DMSO. • 5. 90 nL/well of serial diluted compounds was transferred from source plate to a 384-well compound plate by using an Echo. • 6. 30 μL/well of assay buffer (20 mM HEPES in 1x HBSS, pH 7.4) was added to the compound plate. • 7. The plate was mixed on-plate shaker for 2 minutes.
• 1. After the cells were incubated with dye solution, the cell plate, compound plate containing 3×compounds and FLIPR tips were placed into FLIPR. • 2. 10 μL of 3×compounds transferred from the compound plate to the cell plate by FLIPR. • 3. The plate was read for 160 sec with 1 sec interval and the data of agonist mode was obtained.
• 1. The normalized fluorescence reading (RFU) was calculated as shown below, wherein Fmax and Fmin stand for maximum and minimum of calcium signal during defined time window:
RFU=Fmax−Fmin • 2. EC50 by fitting RFU against log of compound concentrations with Hill equation was calculated using XLfit.
The following procedure can also be followed: • 1. Cells are cultured in cell culture medium (DMEM containing 10% FBS, 1× penicillin-streptomycin 300 μg/ml G418 and 100 μg/ml hygromycin B) at 37° C., 5% (v/V) CO2. • 2. One day before the assays, the cells are detached using TrypLE™ Express and cells are counted using cell counter.

T1 sequence (P28223 whole entry): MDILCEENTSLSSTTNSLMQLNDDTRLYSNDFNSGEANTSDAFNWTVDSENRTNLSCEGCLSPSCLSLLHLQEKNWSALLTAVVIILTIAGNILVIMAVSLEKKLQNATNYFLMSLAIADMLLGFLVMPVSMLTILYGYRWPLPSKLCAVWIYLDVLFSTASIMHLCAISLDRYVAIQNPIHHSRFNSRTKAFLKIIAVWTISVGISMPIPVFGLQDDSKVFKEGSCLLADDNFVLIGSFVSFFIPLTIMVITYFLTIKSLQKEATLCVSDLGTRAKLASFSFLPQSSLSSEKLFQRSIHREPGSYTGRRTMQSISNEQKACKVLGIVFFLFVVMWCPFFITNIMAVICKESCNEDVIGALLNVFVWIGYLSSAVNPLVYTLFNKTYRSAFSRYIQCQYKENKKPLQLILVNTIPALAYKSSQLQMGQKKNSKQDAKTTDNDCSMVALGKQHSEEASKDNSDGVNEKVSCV

[2H]C([2H])([2H])N(CCN1CCc2ccc(OC)cc21)C([2H])([2H])[2H] [Compound I-70, 2-(6-Methoxyindolin-1-yl)-N, N-bis(methyl-d3) ethan-1-amine]
RFU@10 μM: 303 RFU

COc1ccc2c(c1)N(C[C@H]1CCCN1)CC2 [(R)-I-59, (R)-6-Methoxy-1-(pyrrolidin-2-ylmethyl) indoline]
RFU@10 μM: 801 RFU | EC50: 1.21 µM

COc1cccc2c1CCN2C[C@H]1CCCN1C [(R)-I-47, (R)-4-Methoxy-1-((1-methylpyrrolidin-2-yl)methyl) indoline]
RFU@10 μM: 174 RFU

COc1cc2c(cc1OC)N(C[C@H]1CCCN1C)CC2 [(R)-I-34, (R)-5,6-dimethoxy-1-((1-methylpyrrolidin-2-yl)methyl) indoline]
RFU@10 μM: 268 RFU

COc1ccc2c(c1)N(C[C@H]1CCCN1C)CC2 [(R)-I-58, (R)-6-Methoxy-1-((1-methylpyrrolidin-2-yl)methyl) indoline]
RFU@10 μM: 796 RFU | EC50: 0.322 µM

[2H]C([2H])([2H])N(CCN1CCc2ccccc21)C([2H])([2H])[2H] [Compound I-71, 2-(Indolin-1-yl)-N,N-bis(methyl-d3) ethan-1-amine]
RFU@10 μM: 280 RFU

[2H]C([2H])([2H])Oc1ccc2c(c1)N(C([2H])([2H])[C@H]1CCCN1C([2H])([2H])[2H])CC2 [(R)-I-28, (R)-6-(Methoxy-d3)-1-((1-(methyl-d3)pyrrolidin-2-yl)methyl-d2) indoline]
RFU@10 μM: 3744 RFU | EC50: 1.09 µM

[2H]C([2H])([2H])N1CCC[C@@H]1C([2H])([2H])N1CCc2ccccc21 [(R)-I-1, (R)-1-((1-(Methyl-d3)pyrrolidin-2-yl)methyl-d2) indoline]
RFU@10 μM: 386 RFU | EC50: 3.55 µM

[2H]C([2H])([2H])N1CCC[C@@H]1C([2H])([2H])N1CCc2ccc(OC)cc21 [(R)-I-57, (R)-6-Methoxy-1-((1-(methyl-d3)pyrrolidin-2-yl)methyl-d2) indoline]
RFU@10 μM: 749 RFU | EC50: 0.422 µM

COc1cccc2c1N(C[C@H]1CCCN1C)CC2 [(R)-I-46, (R)-7-Methoxy-1-((1-methylpyrrolidin-2-yl)methyl) indoline]
RFU@10 μM: 487 RFU | EC50: 1.14 µM
